Patent US20240158446A1, “CYCLIC COMPOUND HAVING SELECTIVE INHIBITORY ACTION ON KRAS OVER HRAS AND NRAS” (CHUGAI SEIYAKU KABUSHIKI KAISHA, priority 2021, published 2024)
Read-outs that look alike come from different tables or passages of the source. Where a SMILES comes first, the peptide text is derived from it. Bridges are numbered along the chain shown (N, C = ends). [ ]: non-standard residue; d: D form. The star is where a group is joined. hPhe(3,5-F2-4-CF3) = N[C@@H](CCc1cc(F)c(C(F)(F)F)c(F)c1)C(=O)O; hPhe(3-Cl-4-CF3) = N[C@@H](CCc1ccc(C(F)(F)F)c(Cl)c1)C(=O)O; NPrPhe(4-CF3) = CCCN[C@@H](Cc1ccc(C(F)(F)F)cc1)C(=O)O; Abu(4,4,4-F3) = N[C@@H](CC(F)(F)F)C(=O)O; NMeGly(cPent) = CN[C@H](C(=O)O)C1CCCC1; Pro(4,4-F2) = O=C(O)[C@@H]1CC(F)(F)CN1; NMeD = CN[C@@H](CC(=O)O)C(=O)O; NMeL = CN[C@@H](CC(C)C)C(=O)O; Iva = CC[C@](C)(N)C(=O)O; Morpholide = C1CN(*)CCO1; Ac5c = NC1(C(=O)O)CCCC1; Sar = CNCC(=O)O

Columns and labels:
[1] = target: GDP-bound KRAS wild-type protein (Homo sapiens, UniProt P01116); assay: Binding to KRAS by surface plasmon resonance (SPR), Single Cycle Kinetics; conditions: GDP-bound KRAS wild-type protein, read-out: KRAS KD
Chain of GDP-bound KRAS wild-type protein (P01116 whole entry): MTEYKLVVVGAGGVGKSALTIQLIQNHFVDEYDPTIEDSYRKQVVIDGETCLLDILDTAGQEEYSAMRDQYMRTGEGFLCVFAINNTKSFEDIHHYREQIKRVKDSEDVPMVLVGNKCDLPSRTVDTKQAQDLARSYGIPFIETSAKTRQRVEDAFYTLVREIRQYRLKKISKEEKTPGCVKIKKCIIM

[2] = target: GDP-bound NRAS wild-type protein (Homo sapiens, UniProt P01111); assay: Binding to NRAS by surface plasmon resonance (SPR), Single Cycle Kinetics; conditions: SPR, GDP-bound NRAS wild-type protein vs GDP-bound KRAS wild-type protein
Chain of GDP-bound NRAS wild-type protein (P01111 whole entry): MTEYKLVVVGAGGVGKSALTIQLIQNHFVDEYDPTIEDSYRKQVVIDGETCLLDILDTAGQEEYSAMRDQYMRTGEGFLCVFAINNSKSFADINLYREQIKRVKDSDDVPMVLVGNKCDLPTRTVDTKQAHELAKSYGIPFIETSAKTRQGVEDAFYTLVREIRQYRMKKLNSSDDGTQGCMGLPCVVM

[3] = target: GDP-bound HRAS wild-type protein (Homo sapiens, UniProt P01112); assay: Binding to HRAS by surface plasmon resonance (SPR), Single Cycle Kinetics; conditions: SPR, GDP-bound HRAS wild-type protein vs GDP-bound KRAS wild-type protein
Chain of GDP-bound HRAS wild-type protein (P01112 whole entry): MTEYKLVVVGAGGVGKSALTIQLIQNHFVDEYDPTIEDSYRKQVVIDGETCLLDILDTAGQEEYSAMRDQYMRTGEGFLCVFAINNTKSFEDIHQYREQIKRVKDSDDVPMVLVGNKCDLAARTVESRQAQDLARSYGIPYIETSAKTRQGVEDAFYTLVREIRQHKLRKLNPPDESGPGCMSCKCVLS

[4] = SPR Single Cycle Kinetics, 1:1 binding model

| Structure (SMILES) | Kd [1, 4] | NRAS/KRAS (ratio of KD value with respect to NRAS to KD value with respect to KRAS) [2] | HRAS/KRAS (ratio of KD value with respect to HRAS to KD value with respect to KRAS) [3] | Kd ([1]; SPR, Single Cycle Kinetics) | NRAS/KRAS (ratio of KD value for NRAS to KD value for KRAS) [2] | HRAS/KRAS (ratio of KD value for HRAS to KD value for KRAS) [3] | also measured |
| --- | --- | --- | --- | --- | --- | --- | --- |
| CC(C)C[C@H]1C(=O)N[C@@H](C2CCC2)C(=O)N(C)CC(=O)N(C)[C@H]2CCCCN(C2=O)[C@@H](Cc2ccc(C(F)(F)F)cc2)C(=O)N(C)CC(=O)N[C@@H](CCc2cc(F)c(C(F)(F)F)c(F)c2)C(=O)N2CCC[C@H]2C(=O)NC2(CCCC2)C(=O)N(C)[C@@H](C2CCCC2)C(=O)N(C)[C@H](C(=O)N2CCOCC2)CC(=O)N1C [PP0596] | 0.1 nM | B (a compound having 3 or more and less than 10 is denoted as B) | B (a compound having 3 or more and less than 10 is denoted as B) |  |  |  |  |
| CCCN1C(=O)CN(C)C(=O)CN(C)C(=O)[C@H]([C@@H](C)CC)NC(=O)[C@H](CC(C)C)N(C)C(=O)C[C@@H](C(=O)N2CCOCC2)N(C)C(=O)[C@H](C2CCCC2)N(C)C(=O)[C@](C)(CC)NC(=O)[C@@H]2CCCN2C(=O)[C@H](CCc2cc(F)c(C(F)(F)F)c(F)c2)NC(=O)CN(C)C(=O)[C@@H]1Cc1ccc(C(F)(F)F)cc1 [PP0754] ([NMeL]I[Sar][Sar][NPrPhe(4-CF3)][Sar][hPhe(3,5-F2-4-CF3)]P[Iva][NMeGly(cPent)][NMeD]-Morpholide; lactam N-11) | 0.49 nM | B (a compound having 3 or more and less than 10 is denoted as B) | C (A compound having a KD ratio of 0.1 or more and less than 3 is denoted as C) |  |  |  |  |
| C#CC[C@H]1C(=O)N[C@@H]([C@@H](C)CC)C(=O)N(C)CC(=O)N(C)[C@H]2C/C=C\CCN(C2=O)[C@@H](Cc2ccc(C(F)(F)F)cc2)C(=O)N(C)CC(=O)N[C@@H](CCc2ccc(C(F)(F)F)c(OC)c2)C(=O)N2C[C@@H](C)C[C@H]2C(=O)NC2(CCC2)C(=O)N(C)[C@@H](C2CCCC2)C(=O)N(C)[C@H](C(=O)N(C)CC)CC(=O)N1C [PP2061] |  |  |  | 0.075 nM | AA (a compound having 20 or more is denoted as AA) | A (a compound having 10 or more and less than 20 is denoted as A) |  |
| CCCN1C(=O)CN(C)C(=O)CN(C)C(=O)[C@H](CC(F)(F)F)NC(=O)[C@H](CC(C)C)N(C)C(=O)C[C@@H](C(=O)N2CCOCC2)N(C)C(=O)[C@H](C2CCCC2)N(C)C(=O)C2(CCCC2)NC(=O)[C@@H]2CCCN2C(=O)[C@H](CCc2ccc(C(F)(F)F)c(Cl)c2)NC(=O)CN(C)C(=O)[C@@H]1Cc1ccc(C(F)(F)F)cc1 [PP0249] ([NMeL][Abu(4,4,4-F3)][Sar][Sar][NPrPhe(4-CF3)][Sar][hPhe(3-Cl-4-CF3)]P[Ac5c][NMeGly(cPent)][NMeD]-Morpholide; lactam N-11) | 0.69 nM |  |  |  | B (a compound having 3 or more and less than 10 is denoted as B) | C (A compound having a KD ratio of 0.1 or more and less than 3 is denoted as C) |  |
| CCO[C@@H]1C[C@H]2C(=O)NC3(CCC3)C(=O)N(C)[C@@H](C3CCCC3)C(=O)N(C)[C@H](C(=O)N(C)C)CC(=O)N(C)[C@@H](CC3CCCC3)C(=O)N[C@@H]([C@@H](C)CC)C(=O)N(C)CC(=O)N(C)[C@H]3C/C=C\CCN(C3=O)[C@@H](Cc3ccc(F)cc3)C(=O)N(C)CC(=O)N[C@@H](CCc3cc(F)c(C(F)(F)F)c(F)c3)C(=O)N2C1 [PP1531, (2S,8S,12R,14S,20S,23S,27S,30S,36S,38Z)-20-cyclopentyl-27-(cyclopentylmethyl)-8-[2-[3,5-difluoro-4-(trifluoromethyl)phenyl]ethyl]-12-ethoxy-2-[(4-fluorophenyl)methyl]-N,N,4,19,22,26,32,35-octamethyl-30-[(1S)-1-methylpropyl]-3,6,9,15,18,21,25,28,31,34,42-undecaoxo-spiro[1,4,7,10,16,19,22,26,29,32,35-undecazatricyclo[34.5.1.0^10,14]dotetracont-38-ene-17,1′-cyclobutane]-23-carboxamide] |  |  |  |  |  |  | Kd ([1]; SPR, Single Cycle Kinetics, 1:1 binding model): 0.12 nM; NRAS/KRAS (ratio of KD value for NRAS to KD value for KRAS) ([2]; KD ratio class): A (a compound having 10 or more and less than 20 is denoted as A); HRAS/KRAS (ratio of KD value for HRAS to KD value for KRAS) ([3]; KD ratio class): B (a compound having 3 or more and less than 10 is denoted as B) |
| CCCN1C(=O)CN(C)C(=O)CNC(=O)[C@H]([C@@H](C)CC)NC(=O)[C@H](CC(C)C)N(C)C(=O)C[C@@H](C(=O)N2CCOCC2)N(C)C(=O)[C@H](C2CCCC2)N(C)C(=O)C2(CCCC2)NC(=O)[C@@H]2CC(F)(F)CN2C(=O)[C@H](CCc2ccc(C(F)(F)F)c(Cl)c2)NC(=O)CN(C)C(=O)[C@@H]1Cc1ccc(C(F)(F)F)cc1 [PP0394] ([NMeL]IG[Sar][NPrPhe(4-CF3)][Sar][hPhe(3-Cl-4-CF3)][Pro(4,4-F2)][Ac5c][NMeGly(cPent)][NMeD]-Morpholide; lactam N-11) | 0.24 nM |  |  |  | C (A compound having a KD ratio of 0.1 or more and less than 3 is denoted as C) | C (A compound having a KD ratio of 0.1 or more and less than 3 is denoted as C) |  |
| CCO[C@@H]1C[C@H]2C(=O)NC3(CC(C)(C)C3)C(=O)N(C)[C@@H](C(CC)CC)C(=O)N(C)[C@H](C(=O)N(C)C)CC(=O)N(C)[C@H]3CCCCCc4ccc(cc4)C[C@@H](C(=O)N(C)CC(=O)N[C@@H](CCc4ccc(C(F)(F)F)c(OC)c4)C(=O)N2C1)N1CC/C=C\C[C@@H](C1=O)N(C)C(=O)CN(C)C(=O)[C@H]([C@@H](C)CC)NC3=O [PP3035] |  |  |  | 0.092 nM | AA (a compound having 20 or more is denoted as AA) | A (a compound having 10 or more and less than 20 is denoted as A) |  |
| CCO[C@@H]1C[C@H]2C(=O)NC3(CCC3)C(=O)N(C)[C@@H](C3CCCC3)C(=O)N(C)[C@H](C(=O)N(C)C)CC(=O)N(C)[C@@H](CC)C(=O)N[C@@H]([C@@H](C)CC)C(=O)N3CC[C@H]3C(=O)N(C)[C@H]3CC(C)=C(C)CN(C3=O)[C@@H](Cc3ccc(C(F)(F)F)cc3)C(=O)N(C)CC(=O)N[C@@H](CCc3cc(F)c(C(F)(F)F)c(F)c3)C(=O)N2C1 [PP1049] |  |  |  | 0.91 nM | C (A compound having a KD ratio of 0.1 or more and less than 3 is denoted as C) | C (A compound having a KD ratio of 0.1 or more and less than 3 is denoted as C) |  |
| CC[C@H](C)[C@@H]1NC(=O)[C@H](CC(C)C)N(C)C(=O)C[C@@H](C(=O)N2CCOCC2)N(C)C(=O)[C@H](C2CCCC2)N(C)C(=O)C2(CCC2)NC(=O)[C@@H]2CC(F)(F)CN2C(=O)[C@H](CCc2cc(F)c(C(F)(F)F)c(F)c2)NC(=O)CN(C)C(=O)[C@H](Cc2ccc(C(F)(F)F)cc2)N2CCCC[C@@H](C2=O)N(C)C(=O)CN(C)C1=O [PP0575] | 0.023 nM | B (a compound having 3 or more and less than 10 is denoted as B) | B (a compound having 3 or more and less than 10 is denoted as B) |  |  |  |  |
